Results as given in US10258040B2, “Use of combinations comprising host defense inducers and biological control agents for controlling bacterial harmful organisms in useful plants” (Bayer CropScience Aktiengesellschaft, priority 2013, dated 2019).

Experiments:
[1] = tested on: Pseudomonas syringae pv. tomato; test: in vivo preventive test on Pseudomonas syringae pv. tomato (tomatoes); conditions: sprayed one week before inoculation, evaluated 1 week after inoculation
Procedure: When the percentage of inhibition observed for the combination is greater than E, there is a synergistic effect. • Solvent: deionized water • tested compounds: […] To test for preventive activity, young plants are sprayed with the prepared compounds at three different rates of application. One week after application, the plants are inoculated with an aqueous suspension of Pseudomonas syringae pv. tomato. Inoculated plants are placed in a greenhouse chamber at 25° C. at a relative atmospheric humidity of 90%.

Potato = test: potato field seed/soil treatment test: plant and stem number, tuber weight, tuber grading; conditions: T2: dose 12/100 kg seed, ST
Procedure: (§1) • Solvent: water • Tested compounds: Isotianil (FS200 formulation) at 30/24/12 ml/100 KG Potato Seed • Penflufen (Emesto FS240 formulation) at 10 ml/100 KG Potato Seed • Serenade ASO (Bacillus subtilis QST 713 strain/SC/1.34%) 5 Litres/ha (200 ml/area sown under 100 KG Seed)
(§2) To test for seed (tuber) treatment activity mixtures of Isotianil FS200 and Serenade ASO SC in combination with an optional further fungicide, ie Potato tubers are selected having reasonable Streptomyces scabies infestation. Seed was treated by spray on the tubers with hand knapsack sprayer using total volume of slurry 1500 ml/100 Kg Seed. Seed treatment was done with Isotianil FS 200 alone and in tank-mix with Penflufen.
(§3) Serenade ASO SC 1.34% @ 5000 ml/ha of formulated product was sprayed in the furrows just before the sowing of seeds. 100 KG seeds are sown on an area of 400 m^2 and Serenade ASO @ 200 ml formulated product was used in this test. Seed treated with Isotianil and optional Penflufen as method described above was used in combination with soil application of Serenade ASO in furrows before sowing. This study was conducted in natural field conditions chamber and observations for Streptomyces scabies infestation on potato was taken at the time of harvest.
(§4) The test is evaluated at harvest of potato crop.

Streptomyces scabies = test: in vivo preventive (seed growth test) test on Streptomyces scabies (potato), scab efficacy at harvest; conditions: T2: dose 12/100 kg seed, ST, natural field conditions
Procedure: as §1, §2, §3, §4

N#Cc1ccccc1NC(=O)c1snc(Cl)c1Cl [(A.2) Isotianil, isotianil]
Efficacy in % found ([1]; application rate 50 g a.i.): 6%
Efficacy in % found ([1]; application rate 100 g a.i.): 0%
Efficacy in % found ([1]; application rate 200 g a.i.): 0%
% age Grading Large (Potato; potato tubers at harvest): 34%
% age Grading Small (Potato; potato tubers at harvest): 29%
% age Grading medium (Potato; potato tubers at harvest): 37%
% age increase/dicrease over conrol, No. of Plants/5 meter (Potato; potato, field): 3%
% age increase/dicrease over conrol, No. of stems/meter (Potato; potato, field): 7%
% age increase/dicrease over conrol, Weight of tuber/5 meter (Potato; potato, field): 11%
% age Efficacy Scab (Streptomyces scabies): 68%
